Consider four molecules from patent US5302589A, “Heterocyclic inhibitors of 5-α-testosterone reductase” (Glaxo, Inc., priority 1992, dated 1994).

SMILES strings stand for the structures.

This test deals with T1, 5-α-reductase (Homo sapiens, UniProt P31213).
T1 construct: microsomes derived from human prostate tissue; from tissue; host or cells: human prostate tissue (BPH patients), microsomes
T1 sequence (P31213 1-254): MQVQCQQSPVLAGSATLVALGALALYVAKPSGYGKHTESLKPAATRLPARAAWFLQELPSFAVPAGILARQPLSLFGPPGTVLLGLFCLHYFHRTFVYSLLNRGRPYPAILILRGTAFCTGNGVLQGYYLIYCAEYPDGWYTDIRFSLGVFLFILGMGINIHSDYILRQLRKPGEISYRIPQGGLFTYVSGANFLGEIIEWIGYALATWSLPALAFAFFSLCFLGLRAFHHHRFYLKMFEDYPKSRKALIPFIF
The experiment in a line: Steroid 5-α-reductase in vitro assay (prostatic microsomes, conversion of [3H]-testosterone to DHT). The settings on record: microsomes from human (BPH) prostate tissue; 100 nM [1,2,6,7-^3 H]-testosterone, 1 mM NADPH, 60 minutes at 37° C.; HPLC with radiochemical detection; read-out: 5-α-REDUCTASE in vitro INHIBITORY ACTIVITY IC50 Human. The test is classed as biochemical. On the procedure:
Enzyme activity may be determined using microsomes derived from prostate tissue of benign prostatic hypertrophy (BPH) patients or from rat prostate tissue. Prostatic microsomes were prepared by homogenization of the tissue, followed by differential centrifugation of the homogenate. Microsome extracts were incubated with 100 nM [1,2,6,7-^3 H]-testosterone, 1 mM NADPH and varying amounts of the a compounds of Formula (I), i.e., a test compound, for 60 minutes at 37° C. Corresponding incubations were carried out with no test compound as a control study. The percentage of conversion of testosterone to DHT in the presence of a test compounds compared to the corresponding conversion in the control study was estimated using high pressure liquid chromatography (HPLC) with radiochemical detection. The results of this assay as IC50 values for microsomes derived from human prostate tissue are show in Table 1.

Usually IC50 stands for the point on the concentration scale where inhibition reaches its midpoint. As to `CCN(CC)C(=O)[C@H]1CC[C@H]2[C@@H]3Cn4nnc5c4[C@](C)(CCC5=O)[C@H]3CC[C@]12C` [Compound 1, 17β-N,N-Diethylcarbamoyl-6-azaandrost-4,6-diazo-4-en-3-one], the IC50 fell in the range of 100 to 1000 nM.
As for `CCN(CC)C(=O)[C@H]1CC[C@H]2[C@@H]3Cn4ccc5c4[C@](C)(CCC5=O)[C@H]3CC[C@]12C` [Compound 2, 17β-N,N-Diethylcarbamoyl-6-azaandrost-4,6-etheno-4-en-3-one], the half-maximal inhibitory concentration (IC50) lay within 10 to 100 nM.
Turning to `CC(C)(C)NC(=O)[C@H]1CC[C@H]2[C@@H]3Cn4ccc5c4[C@](C)(CCC5=O)[C@H]3CC[C@]12C` [Compound 3, 17β-N-t-Butylcarbamoyl-6-azaandrost-4,6-etheno-4-en-3-one], the IC50 was 10 to 100 nM.
Consider `CC(C)(C)NC(=O)[C@H]1CC[C@H]2[C@@H]3CN4CCCCC5=C4[C@](C)(CCC5=O)[C@H]3CC[C@]12C` [Compound 4, 17β-N-t-Butylcarbamoyl-6-azaandrost-4,6-butano-4-en-3-one], for which the IC50 lay within 10 to 100 nM.
